Data on one compound can be found in patent US10925855B2, “Compositions comprising water dispersible nanoparticles of a retinoid compound” (GALDERMA RESEARCH & DEVELOPMENT, priority 2015, dated 2021).

The data set can be described thus: Solvent screening (solubility of compound A). The following applies: for solubility: thermodynamic from solid, Sonication. Format: physicochemical. As for the experimental part: 10-20 mg of 3″-tert-butyl-4′-(2-hydroxyethoxy)-4″-pyrrolidin-1-yl[1,1′;3′,1″]-terphenyl-4-carboxylic acid (hereinafter “compound A”) was placed into a 30 ml vial. 200 μl of the selected solvent was added and the vial was stirred by magnetic stirring. • If the compound A was not dissolved, the vial was placed into ultrasonic bath with mild heating. • If the compound A was still not dissolved, further 200 μl of the solvent was added to the vial and the magnetic stirring and ultrasonication were repeated.
The whole procedure (addition of the solvent, stirring, ultrasonication, heating) was repeated stepwise until every compound A particles was dissolved and a clear, translucent liquid was obtained.

Values after ≈ are worked out from the molar mass of the structure shown. Where only a bound is given, the exact number is not on record here.

By solubility is commonly meant how much of the substance goes into solution per volume.

As to `CC(C)(C)c1cc(-c2cc(-c3ccc(C(=O)O)cc3)ccc2OCCO)ccc1N1CCCC1` [Compound A, 3″-tert-butyl-4′-(2-hydroxyethoxy)-4″-pyrrolidin-1-yl[1,1′;3′,1″]-terphenyl-4-carboxylic acid], the “solubility profile (in words)” value (acetone) is given as “slightly soluble”; the “solubility profile (in words)” value (acetonitrile) was “very slightly soluble”; the “solubility profile (in words)” value (ethanol) is “slightly soluble”; the “solubility profile (in words)” value (isopropanol) is recorded as “slightly soluble”; the “solubility profile (in words)” value (methanol) is “slightly soluble”; the “solubility profile (in words)” value (pyridine) was “soluble”. For the same compound, the “solubility profile (in words)” value was “soluble” (tetrahydrofuran) and “practically insoluble” (water). Moreover, the solubility (organic solvent or mixture, Acetone, RT) was found to be 3000 µg/mL (≈ 6.53 mM); the solubility (organic solvent or mixture, Acetonitrile, RT) is 400 µg/mL (≈ 0.87 mM); the solubility (organic solvent or mixture, Ethanol, RT) came to 4900 µg/mL (≈ 10.7 mM); the solubility (organic solvent or mixture, Isopropanol, RT) turned out to be 3000 µg/mL (≈ 6.53 mM); the solubility (organic solvent or mixture, Methanol, RT) was 1700 µg/mL (≈ 3.7 mM); the solubility (organic solvent or mixture, Pyridine, RT) is 34500 µg/mL (≈ 75.1 mM). Further, the solubility (organic solvent or mixture, Tetrahydrofuran, RT) was determined as 30500 µg/mL (≈ 66.4 mM) and the solubility (Water, T = 45° C.) is less than 50 µg/mL.
